The results in this text go back to patent US20240409536A1, “COMPOUNDS AND METHODS FOR MODULATING SPLICING” (REMIX THERAPEUTICS INC., priority 2021, published 2024).

Bounds are passed on as bounds.

For experiment [1], the system named is MYB mRNA. Kind of experiment: Splicing RT-qPCR assay, MYB canonical (CJ) and alternative (AJ) junction mRNA. The class given is cell-based. The conditions noted are these: Homo sapiens, A673 or K562 cells, 24 hours; for IC50: decrease in canonical junction mRNA; for AC50: increase in alternative junction mRNA. In short, it runs like this:
(§1)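 Splice switching was scored by qPCR detection of the new alternative-exon junction (AJ) alongside the canonical junction (CJ). Cell lines A673 or K562 received compound 24 h, top dose 10 uM final.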

For experiment [2], the system named is HTT mRNA. Kind of experiment: Gene panel canonical junction qPCR assay, HTT CJ mRNA decrease. The class given is cell-based, human. Conditions: Homo sapiens, canonical junction qPCR, read-out: HTT IC50 (decrease in CJ mRNA levels). The gist of the method:
(§2)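 IC50 values describe loss of canonical-junction transcript, fitted by 4-parameter logistic to percent response derived from fixed ΔCt windows. Read-out: RT-qPCR on lysates of compound-treated K562 or A673 cells, probes overlapping the exon junction, ΔΔCt versus housekeeping gene and DMSO control.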
In general terms: Real-time PCR tracks product formation cycle by cycle.

Experiment [3] concerns Target C mRNA. Kind of experiment: Gene panel canonical junction qPCR assay, Target C CJ mRNA decrease. The class given is cell-based. Conditions: Homo sapiens, canonical junction qPCR, read-out: Target C IC50 (decrease in CJ mRNA levels). In short, it runs like this: as §2
Experiment [4] relates to HTT mRNA. Kind of experiment: Splicing RT-qPCR assay, HTT canonical (CJ) and alternative (AJ) junction mRNA. Type of experiment: cell-based. Conditions: Homo sapiens, A673 or K562 cells, 24 hours; for IC50: decrease in canonical junction mRNA; for AC50: increase in alternative junction mRNA. The gist of the method:
as §1

Take `CN[C@@H]1CCN(c2ccc(C(=O)Nc3cc(F)c4nc(C)cn4c3)c3nccnc23)C1` (single isomer, unassigned) [Compound 193, N-{8-fluoro-2-methylimidazo[1,2-a]pyridin-6-yl}-8-[3-(methylamino)pyrrolidin-1-yl]quinoxaline-5-carboxamide]: the IC50 in experiment [1] was 100 to 1000 nM; in experiment [2] it was over 10000 nM; in experiment [3] it was over 10000 nM; in experiment [4], over 10000 nM. In addition, the results for the AC50 in experiment [1] and in experiment [4] were 100 to 1000 nM and over 10000 nM, respectively.

On to `CN[C@H]1CCN(c2ccc(C(=O)Nc3cc(F)c4nc(C)cn4c3)c3nccnc23)C1` (single isomer, unassigned) [Compound 194, N-{8-fluoro-2-methylimidazo[1,2-a]pyridin-6-yl}-8-[3-(methylamino)pyrrolidin-1-yl]quinoxaline-5-carboxamide], for which the IC50 in experiment [1] is under 100 nM; in experiment [2], 1000 to 10000 nM; in experiment [3], 1000 to 10000 nM; in experiment [4], 1000 to 10000 nM. In addition, the AC50 in experiment [1] is 100 to 1000 nM; in experiment [4], 1000 to 10000 nM.

For `Cc1cn2nc(NC(=O)c3ccc(N4CCNCC4)c4ccnnc34)cc(C)c2n1` [Compound 100], the IC50 in experiment [1], in experiment [2], in experiment [3] and in experiment [4] was 100 to 1000 nM in each case. For the same molecule, the AC50 in experiment [1] and in experiment [4] was 100 to 1000 nM in each case.

`Cc1cn2cc(NC(=O)c3ccc(N4CCNC5(CC5)C4)c4ccnnc34)cc(F)c2n1` [Compound 105]: the IC50 is 100 to 1000 nM in experiment [1], 1000 to 10000 nM in experiment [2], over 10000 nM in experiment [3] and 1000 to 10000 nM in experiment [4]. Also, the AC50 in experiment [1] was in the range of 100 to 1000 nM; in experiment [4], 1000 to 10000 nM.

As to `Cc1cn2cc(NC(=O)c3ccc(N4C[C@H]5CC[C@@H](C4)N5)c4ccnnc34)cc(F)c2n1` [Compound 108], the IC50 fell in the range of 100 to 1000 nM in experiment [1], 1000 to 10000 nM in experiment [2], 1000 to 10000 nM in experiment [3] and 1000 to 10000 nM in experiment [4]. Also, the results for the concentration at half-maximal activity (AC50) in experiment [1] and in experiment [4] were 100 to 1000 nM and 1000 to 10000 nM, respectively.

With `Cc1cn2nc(NC(=O)c3ccc(N4CCNCC4)c4ccnnc34)cc2c(C)n1` [Compound 123], the IC50 in experiment [1], in experiment [2], in experiment [3] and in experiment [4] was 1000 to 10000 nM throughout. Also, the half-maximal activity concentration (AC50) in experiment [1] and in experiment [4] was 1000 to 10000 nM each time.

With `Cc1cn2cc(NC(=O)c3ccc(N4CCNCC4)c4ccnnc34)cc(C)c2n1` [Compound 125], the IC50 in experiment [1] was 100 to 1000 nM; in experiment [2], 1000 to 10000 nM; in experiment [3] it was 1000 to 10000 nM; in experiment [4], 1000 to 10000 nM. Moreover, the AC50 in experiment [1] was 100 to 1000 nM; in experiment [4], 1000 to 10000 nM.

Regarding `O=C(Nc1cn[nH]c1)c1ccc(N2CCNCC2)c2ccnnc12` [Compound 126], the IC50 in experiment [1], in experiment [2], in experiment [3] and in experiment [4] was over 10000 nM throughout. For the same molecule, the AC50 in experiment [1] and in experiment [4] was over 10000 nM in each case.

As for `Cc1cn2cc(NC(=O)c3ccc(N4CCN(C)CC4)c4ccnnc34)cc(F)c2n1` [Compound 127], the IC50 was in the range of 100 to 1000 nM in experiment [1], 1000 to 10000 nM in experiment [2], 1000 to 10000 nM in experiment [3] and 1000 to 10000 nM in experiment [4]. Also, the AC50 in experiment [1] and in experiment [4] was 1000 to 10000 nM in each case.

In the case of `Cc1cn2cc(NC(=O)c3ccc(N4CCNC(C)C4)c4ccnnc34)cc(F)c2n1` (centres unmarked) [Compound 128], the IC50 in experiment [1] was under 100 nM; in experiment [2], 100 to 1000 nM; in experiment [3], 1000 to 10000 nM; in experiment [4], 100 to 1000 nM. Moreover, the AC50 is under 100 nM in experiment [1] and 100 to 1000 nM in experiment [4].

As to `CCC1CN(c2ccc(C(=O)Nc3cc(F)c4nc(C)cn4c3)c3nnccc23)CCN1` (centres unmarked) [Compound 130], the results for the half-inhibitory concentration (IC50) in experiment [1], in experiment [2] and in experiment [4] were under 100 nM, 1000 to 10000 nM and 1000 to 10000 nM, respectively. Besides, the AC50 in experiment [1] lay in the range of 100 to 1000 nM; in experiment [4], 1000 to 10000 nM.

`Cc1cn2cc(NC(=O)c3ccc(N4CC5(CNC5)C4)c4ccnnc34)cc(F)c2n1` [Compound 131]: the IC50 was 100 to 1000 nM in experiment [1], 1000 to 10000 nM in experiment [2], 1000 to 10000 nM in experiment [3] and 1000 to 10000 nM in experiment [4]. The AC50 in experiment [1] is 100 to 1000 nM; in experiment [4] it was 1000 to 10000 nM.

As to `Cc1cn2cc(NC(=O)c3ccc(N4CCC(N5CCCC5)C4)c4ccnnc34)cc(F)c2n1` (centres unmarked) [Compound 133], the 50% inhibitory concentration (IC50) in experiment [1], in experiment [2], in experiment [3] and in experiment [4] was 1000 to 10000 nM throughout. Further, the AC50 is 100 to 1000 nM in experiment [1] and 1000 to 10000 nM in experiment [4].

One may read the IC50 as the concentration that gives 50% inhibition. The AC50 is the midpoint of the concentration-response curve, whichever way the signal moves.
